From US12012597B2, “Cancer treatment using siRNA to modulate expression of PRDM2/RIZ protein” (ARIZ Precision Medicine, Inc., priority 2020, dated 2024)
Entries after “also recorded” stand apart in the source; their conditions may differ. d = 2'-deoxy (DNA); r = 2'-OH (RNA)

How the values were obtained:
[1] = system: HCT116 colon cancer cells; test: Cell viability after siRNA transfection with or without 5-fluorouracil; conditions: 5-fluorouracil 25 μM added one day after transfection, after four days, relative to untreated cells, FIG. 4
Description: Where indicated, 5-fluorouracil (25 μM) was added one day after transfection. Media (with 5-flurouracil where indicated) was changed after two days, and after four days, percent cell viability was determined, relative to untreated cells.

[2] = system: KMS-11 multiple myeloma cell line; test: Viability of multiple myeloma cells after siRNA; format: cell-based; conditions: comparable to the Tox positive control, FIG. 8
Description: In this example, the effect of siRNA ARIZ-011 was further tested on a multiple myeloma cell line, KMS-11. KMS-11 cell line was obtained from commercially available sources, and was originally derived from […] multiple myeloma patient's cells. These cells have characteristics of plasma cells.

RIZ2 mRNA [3] = test: RIZ2 mRNA level in HCT116 cells after siRNA; format: cell-based, human; conditions: FIG. 5
Description: (§1) RIZ1 and RIZ2 mRNA levels were determined in control and siRNA-transfected cells using qPCR. RNA was extracted from cells 48 hours after transfection, and mRNA expression levels were detected using PRDM isoform A and PRDM isoform C specific PCR primers. RIZ mRNA expression levels were determined relative to GAPDH mRNA expression levels. Scrambled siRNA was used a negative control, and Tox (Transfection control siRNA, commercially available) was used a positive control.

RIZ2 mRNA [4] = test: qPCR of RIZ2 mRNA in siRNA-transfected A549 cells; format: cell-based, human
Description: as §1

RIZ1 mRNA [5] = test: RIZ1 mRNA level in HCT116 cells after siRNA; format: cell-based, human; conditions: FIG. 5
Description: as §1

A549 lung cancer cells = test: MTS cell viability assay after siRNA transfection; format: cell-based, human; conditions: 100 nM siRNA; for Viability of the A549 lung cancer cells (change): DharmaFECT 1, after four days, FIG. 2; for relative cell viability: single exposure, after four days, relative to untreated cells
RIZ1 mRNA [6] = test: qPCR of RIZ1 mRNA in siRNA-transfected A549 cells; format: cell-based, human; conditions: qPCR relative to GAPDH mRNA
Description: as §1

O=c1[nH]cc(F)c(=O)[nH]1 [5-fluorouracil]
cytotoxicity at 25 µM ([1]; Homo sapiens, HCT-116, read-out: decreased cell viability (killing) of HCT116 colon cancer cells, siRNA 100 nM): 72 to 74% | decreased cell viability (killing) of HCT116 colon cancer cells ([1]; siRNA 100 nM): 72%

ARIZ-011: Unmodified double-stranded siRNA, sense SEQ ID NO: 1, antisense SEQ ID NO: 10, complementary to both RIZ1 and RIZ2 mRNA (sense GGGAGAGAUGAGAGAGAAATT; antisense UUUCUCUCUCAUCUCUCCCTT; RNA, all phosphodiester, T or U not given here)
KMS-11 cell death in culture [2]: about 80% | expression level of RIZ2 (change) (RIZ2 mRNA [3]): selectively decreased | decrease in RIZ2 mRNA (RIZ2 mRNA [4]; 48 hours after transfection, relative to GAPDH mRNA, FIG. 3): ~75% | RIZ2 mRNA level (change) (RIZ2 mRNA [4]; qPCR relative to GAPDH mRNA): knockdown | RIZ1 mRNA (change) (RIZ1 mRNA [5]): concurrent increase | Viability of the A549 lung cancer cells (change) (A549 lung cancer cells): decreased | relative cell viability (A549 lung cancer cells): 30% | RIZ1 mRNA level (change) (RIZ1 mRNA [6]): simultaneous increase in RIZ1 mRNA; also recorded: upregulated expression

ARIZ-012: Double-stranded siRNA, sense SEQ ID NO: 2, antisense SEQ ID NO: 12, complementary to sequences shared by RIZ1 and RIZ2 mRNA (sense GUGUAGUGCUGUAAAGAAATT; antisense UUUCUUUACAGCACUACACTT; sugars from the 5' end r19 d2, backbone and T or U not given here)
Viability of the A549 lung cancer cells (change) (A549 lung cancer cells): decreased

ARIZ-015: Double-stranded siRNA, sense SEQ ID NO: 5, antisense SEQ ID NO: 15, complementary to last 19 bases at 3′ end of RIZ2 mRNA (sense GGACUUCAGGAACUUCCUGTT; antisense CAGGAAGUUCCUGAAGUCCTT; sugars from the 5' end r19 d2, backbone and T or U not given here)
Viability of the A549 lung cancer cells (change) (A549 lung cancer cells): decreased | relative cell viability (A549 lung cancer cells): 70%
